Where a name gives a salt, the structure may show the parent alone. Read-outs that look alike come from different tables or passages of the source. Values belong to the molecule of their own block, whether it stands above or below them.
How the values were obtained:
[1] = tested on: Class I and Class II HDACs; experiment: enzymatic reactivity of substrates for Class I and Class II HDACs; format: biochemical; conditions: FIG. 12 legend
Experimental: (§1) A 30 mM stock of Boc-Lys(TFA)-AMC substrate was prepared in DMSO. 2 μl test compound in DMSO was diluted in 50 μl buffer (25 mM HEPES, pH 8.0, 137 mM NaCl, 2.7 mM KCl, 1 mM MgCl2, 0.1% BSA) and pre-incubated with Class II HDAC enzyme (30 μl of a final enzyme concentration of 0.1-0.2 nM) for 10 minutes at room temperature. Reaction was started by adding 18 μl Boc-Lys(TFA)-AMC substrate and incubating at 37° C. for 20-30 minutes. The reaction was stopped by adding 50 μl trypsin (1 mg/ml) and a known HDAC inhibitor. The plate was then incubated in the dark for 20 minutes at room temperature and read with Ex=360 nm, Em=470 nm, cutoff filter at 435 nm.
as §1, with “of Boc-Lys(thioAc)-AMC” for “of Boc-Lys(TFA)-AMC”, “in 15” for “in 50”, “enzyme (15” for “enzyme (30”, “of 50-500” for “of 0.1-0.2”, “μl Boc-Lys(thioAc)-AMC” for “μl Boc-Lys(TFA)-AMC”, “for 30-60” for “for 20-30”

293T cells = experiment: intracellular and excellular deacetylase activity of 293T cells; format: cell-based, human; conditions: 300 uM substrate
Experimental: Freshly trypsinized cells (293T) were dispensed into 96-well black Costar E1A/RIA plates (Corning Inc., Corning, N.Y.). Small molecule substrate Boc-Lys(Ac)-AMC (Bachem Biosciences Inc., King of Prussia, Philadelphia) were added to cell suspension with the final concentration of 300 uM. Cells were placed in 37° C. incubator with 5% CO2 for indicated time period. Supernatant was collected if necessary and subject to spinning. Reaction was stopped by adding a freshly prepared Fluor-de-Lys™ developer (Biomol, Plymouth Meeting, Philadelphia) with 1 uM TSA (Biomol, Plymouth Meeting, Philadelphia) in assay buffer (25 mM Tris, HCl pH8.0, 137 mM NaCl, 2.7 mM KCl, 1 mM MgCl2) plus 1% NP-40 into supernatant or cell pellets. Fluorescence was developed for 15 minutes at 37° C. and read in a fluorometer (SPECTRAMAX GeminiXS, Molecular Devices, Sunnylvale, Calif.) with an excitation wavelength at 360 nm, emission at 470 nm, and a cutoff of 435 nm. […] In contrast, when there is no substrates added, neither supernatant from cultured cells nor cell pellets have HDAC activity.

[2] = tested on: CD-1 mouse whole blood cells; experiment: deacetylase activity in serum from mouse whole blood contacted with substrate; format: cell-based; conditions: 300 uM substrate
Experimental: CD-1 Mouse blood was collected in heparin tubes and cells were counted by Coulter counter (Beckman Coulter, Ville St. Laurent, Quebec). The amount of whole blood containing 1.6×10E6 white blood cells was aliquoted and the volume was brought up to 200 ul with RPMI (+10% FBS). Boc-Ac-Lys-AMC was added to a final concentration of 300 uM. After various amounts of time, the mix was spun (400×g for 5 min), and 50 ul of the supernatant (serum) was transferred to a 96-well plate. The amount of deacetylated product Boc-Lys-AMC present in the supernatant was detected by adding an equal volume of the developer mix and reading after 15 minutes incubation. […] Thus total HDAC activity in primary cells could be easily monitored in bodily fluid where animals were contacted with HDAC substrates ex vivo.

[3] = tested on: total HDAC activity in human white blood cells; experiment: ex vivo inhibition of whole cell HDAC activity in human white blood cells; format: cell-based; conditions: 16 hours incubation; Boc-Lys(ac)-AMC substrate
Experimental: Whole blood (human or mouse) was centrifuged at 2500 rpm for 10 minutes at ambient temperature in a Sorvall RT-7 centrifuge (Mandel Scientific Co., Guelph, Ontario). Plasma was removed and buffy coat was collected. Five volumes of Erythrocyte Lysis Buffer (EL) (Qiagen Canada Inc., Mississauga, Ontario) were added to buffy coat. Buffy coat was incubated on ice for 20 minutes before it was centrifuged at 400 g for 10 minutes at 4° C. Supernatant was removed and buffy coat was washed twice with EL buffer and re-centrifugation. Buffy coat was resuspended in RPMI media and cells (white blood cells) were counted with trypan blue exclusion. White blood cells were plated into 96-well dish in RPMI plus 10% fetal bovine serum. HDAC small molecule substrate Boc-Lys(ac)-AMC was added to cell suspensions and incubated with cells for 90 minutes at 37° C. before reaction was stopped, and fluorescence was developed and read.
Human white blood cells (buffy coat) isolated from human donors were plated into 96-well dish in RPMI plus 10% fetal bovine serum. HDAC inhibitors with a range of dilutions were incubated with cells for 16 hours at 37 C with 5% CO2. HDAC small molecule substrate Boc-Lys(ac)-AMC was added into cell suspensions and incubated with cells for 90 minutes before reaction was stopped, and fluorescence was developed and read.

Du145 = experiment: whole cell deacetylase assay with Boc-Lys(Ac)-AMC in Du145 cells
Experimental: (§2) Freshly trypsinized cells were dispensed into 96-well black Costar E1A/RIA plates (Corning Inc., Corning, N.Y.). Small molecule substrate Boc-Lys(Ac)-AMC (Bachem Biosciences Inc., King of Prussia, Philadelphia) was added to cell suspension with the final concentration of 300 uM. Cells were placed in 37° C. incubator with 5% CO2 for 90 minutes. […] With the presence of 1% NP-40, both excellular and intracellular HDAC activity was measured in cultured cells altogether. Fluorescence was developed for 15 minutes at 37 C and read in a fluorometer (SPECTRAMAX GeminiXS, Molecular Devices, Sunnylvale, Calif.) with an excitation wavelength at 360 nm, emission at 470 nm, and a cutoff of 435 nm.

Jurkat T = experiment: whole cell deacetylase assay with Boc-Lys(Ac)-AMC in Jurkat T cells; conditions: read-out: whole cell deacetylase IC50, Jurkat T
Experimental: as §2

293T = experiment: whole cell deacetylase assay with Boc-Lys(Ac)-AMC in 293T cells; conditions: read-out: whole cell deacetylase IC50, 293T
Experimental: as §2

A549 = experiment: whole cell deacetylase assay with Boc-Lys(Ac)-AMC in A549 cells
Experimental: as §2

HCT116 = experiment: whole cell deacetylase assay with Boc-Lys(Ac)-AMC in HCT116 cells
Experimental: as §2

Panc-1 = experiment: whole cell deacetylase assay with Boc-Lys(Ac)-AMC in Panc-1 cells; conditions: read-out: whole cell deacetylase IC50, Panc-1, pre-incubated with inhibitor 16 hours, Boc-Lys(Ac)-AMC substrate, mean of at least 2 experiments
Experimental: as §2

SMILES: CC(=O)NCCCC[C@H](NC(=O)OC(C)(C)C)C(=O)Nc1ccc2c(C)cc(=O)oc2c1 [Boc-Lys(Ac)-AMC]
- HDAC class specificity of substrate [1]: specific for Class I HDACs, especially HDAC1, HDAC2 and HDAC6
- cell permeability (293T cells): could permeablize into cells
- cell permeability [2]: permeable to go inside cells

SMILES: Cc1cc(=O)oc2cc(NC(=O)[C@H](CCCCNC(=O)C(F)(F)F)NC(=O)OC(C)(C)C)ccc12 [Boc-Lys(Tfa)-AMC]
- HDAC class specificity of substrate [1]: specific for Class II HDACs

SMILES: CC(=S)NCCCCC(NC(=O)OC(C)(C)C)C(=O)Nc1ccc2c(C)cc(=O)oc2c1 (stereo not shown) [Boc-Lys(thioAc)-AMC]
- HDAC class specificity of substrate [1]: specific for Class II HDACs

- cell permeability [2]: permeable to come out from cells
SMILES: Cc1cc(=O)oc2cc(NC(=O)[C@H](CCCCN)NC(=O)OC(C)(C)C)ccc12 [Boc-Lys-AMC]

- IC50 (Du145; Homo sapiens, DU-145, read-out: whole cell deacetylase IC50, Du145): 50 nM
- IC50 (Jurkat T; Homo sapiens, Jurkat): 40 nM
- IC50 (A549; Homo sapiens, A549, read-out: whole cell deacetylase IC50, A549): 20 nM
- IC50 (HCT116; Homo sapiens, HCT-116, read-out: whole cell deacetylase IC50, HCT116): 60 nM
SMILES: O=C(/C=C/c1ccc(CN(CCO)CCc2c[nH]c3ccccc23)cc1)NO [LAQ-824]
- inhibition of whole cell HDAC activity in human white blood cells [3]: dose-dependent inhibition
- IC50 (293T; Homo sapiens, HEK-293T): 40 nM

- IC50 (Du145; read-out: whole cell deacetylase IC50, Du145, Du145 cells, pre-incubated with inhibitor 16 hours, Boc-Lys(Ac)-AMC substrate, mean of at least 2 experiments): 300 nM
- IC50 (Jurkat T; Jurkat T cells, pre-incubated with inhibitor 16 hours, Boc-Lys(Ac)-AMC substrate, mean of at least 2 experiments): 300 nM
- IC50 (Panc-1): 500 nM
- IC50 (A549; read-out: whole cell deacetylase IC50, A549, A549 cells, pre-incubated with inhibitor 16 hours, Boc-Lys(Ac)-AMC substrate, mean of at least 2 experiments): 400 nM
- IC50 (HCT116; read-out: whole cell deacetylase IC50, HCT116, HCT116 cells, pre-incubated with inhibitor 16 hours, Boc-Lys(Ac)-AMC substrate, mean of at least 2 experiments): 3000 nM
SMILES: Nc1ccccc1NC(=O)c1ccc(CNC(=O)OCc2cccnc2)cc1 [MS-275]
- IC50 (293T; 293T cells, pre-incubated with inhibitor 16 hours, Boc-Lys(Ac)-AMC substrate, mean of at least 2 experiments): 2000 nM

SMILES: CC(=O)O[C@H]1C(=O)[C@@]2(C)[C@H]([C@H](OC(=O)c3ccccc3)[C@]3(O)C[C@H](OC(=O)[C@H](O)[C@@H](NC(=O)c4ccccc4)c4ccccc4)C(C)=C1C3(C)C)[C@]1(OC(C)=O)CO[C@@H]1C[C@@H]2O [Taxol]
- IC50 (293T; Homo sapiens, HEK-293T): > 50000 nM

Source: US20080199897A1, “CLASS II HISTONE DEACETYLASE WHOLE CELL ENZYME ASSAY” (MethylGene Inc., priority 2007, published 2008)
